Measured values reported in the supplement of paper PMC10307832.

Assays:
Test in all cases: relative viability (nuclei count vs DMSO), 5 days (fraction); higher = more cells survive
[1] = system: ABC-1
Procedure, shortened: (§1)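 Medians of duplicate plates are given as relative viability. That measure is the nuclei count in treated wells divided by the count in vehicle wells. Counts were taken on 4× images of lung cancer cell lines in 1536-well plates, 5 days after pin-tool dosing the day after seeding with one drug alone or a fixed anchor-drug dose plus five library-drug doses (not always all listed) in √10 steps.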

[2] = system: CAL-12T
Procedure, shortened: as §1

[3] = system: COR-L23
Procedure, shortened: as §1

[4] = system: EKVX
Procedure, shortened: as §1

[5] = system: H3255
Procedure, shortened: as §1

[6] = system: HCC-15
Procedure, shortened: as §1

[7] = system: HCC-827
Procedure, shortened: as §1

[8] = system: LK-2
Procedure, shortened: as §1

[9] = system: NCI-H1355
Procedure, shortened: as §1

[10] = system: NCI-H1437
Procedure, shortened: as §1

[11] = system: NCI-H1563
Procedure, shortened: as §1

[12] = system: NCI-H1650
Procedure, shortened: as §1

[13] = system: NCI-H1734
Procedure, shortened: as §1

[14] = system: NCI-H2228
Procedure, shortened: as §1

[15] = system: NCI-H2342
Procedure, shortened: as §1

[16] = system: NCI-H2405
Procedure, shortened: as §1

[17] = system: NCI-H322M
Procedure, shortened: as §1

[18] = system: NCI-H520
Procedure, shortened: as §1

[19] = system: NCI-H661
Procedure, shortened: as §1

[20] = system: PC-14
Procedure, shortened: as §1

[21] = system: PC-3 [JPC-3]
Procedure, shortened: as §1

[22] = system: RERF-LC-KJ
Procedure, shortened: as §1

[23] = system: SW 1573
Procedure, shortened: as §1

CC1(C)CCC(c2ccc(Cl)cc2)=C(CN2CCN(c3ccc(C(=O)NS(=O)(=O)c4ccc(N[C@H](CCN5CCOCC5)CSc5ccccc5)c(S(=O)(=O)C(F)(F)F)c4)cc3)CC2)C1 [Navitoclax] + N=C(N)NC(=N)NCCc1ccccc1 [Phenformin] (partner 250 µM)
relative viability ([1]; first compound 0.005 µM): 0.245
relative viability ([1]; first compound 0.01581 µM): 0.292
relative viability ([1]; first compound 0.05 µM): 0.277
relative viability ([1]; first compound 0.1581 µM): 0.257
relative viability ([1]; first compound 0.5 µM): 0.215
relative viability ([2]; first compound 0.005 µM): 0.527
relative viability ([2]; first compound 0.01581 µM): 0.655
relative viability ([2]; first compound 0.05 µM): 0.6
relative viability ([2]; first compound 0.1581 µM): 0.503
relative viability ([2]; first compound 0.5 µM): 0.582
relative viability ([3]; first compound 0.005 µM): 0.409
relative viability ([3]; first compound 0.01581 µM): 0.494
relative viability ([3]; first compound 0.05 µM): 0.516
relative viability ([3]; first compound 0.1581 µM): 0.438
relative viability ([3]; first compound 0.5 µM): 0.447
relative viability ([4]; first compound 0.005 µM): 0.262
relative viability ([4]; first compound 0.01581 µM): 0.238
relative viability ([4]; first compound 0.05 µM): 0.226
relative viability ([4]; first compound 0.1581 µM): 0.239
relative viability ([4]; first compound 0.5 µM): 0.235
relative viability ([5]; first compound 0.005 µM): 0.338
relative viability ([5]; first compound 0.01581 µM): 0.399
relative viability ([5]; first compound 0.05 µM): 0.376
relative viability ([5]; first compound 0.1581 µM): 0.39
relative viability ([5]; first compound 0.5 µM): 0.339
relative viability ([6]; first compound 0.005 µM): 0.453
relative viability ([6]; first compound 0.01581 µM): 0.488
relative viability ([6]; first compound 0.05 µM): 0.406
relative viability ([6]; first compound 0.1581 µM): 0.483
relative viability ([6]; first compound 0.5 µM): 0.422
relative viability ([7]; first compound 0.005 µM): 0.404
relative viability ([7]; first compound 0.01581 µM): 0.434
relative viability ([7]; first compound 0.05 µM): 0.355
relative viability ([7]; first compound 0.1581 µM): 0.396
relative viability ([7]; first compound 0.5 µM): 0.382
relative viability ([8]; first compound 0.005 µM): 0.417
relative viability ([8]; first compound 0.01581 µM): 0.551
relative viability ([8]; first compound 0.05 µM): 0.379
relative viability ([8]; first compound 0.1581 µM): 0.353
relative viability ([8]; first compound 0.5 µM): 0.395
relative viability ([9]; first compound 0.005 µM): 0.48
relative viability ([9]; first compound 0.01581 µM): 0.467
relative viability ([9]; first compound 0.05 µM): 0.388
relative viability ([9]; first compound 0.1581 µM): 0.436
relative viability ([9]; first compound 0.5 µM): 0.463
relative viability ([10]; first compound 0.005 µM): 0.269
relative viability ([10]; first compound 0.01581 µM): 0.333
relative viability ([10]; first compound 0.05 µM): 0.334
relative viability ([10]; first compound 0.1581 µM): 0.314
relative viability ([10]; first compound 0.5 µM): 0.41
relative viability ([11]; first compound 0.005 µM): 0.685
relative viability ([11]; first compound 0.01581 µM): 0.723
relative viability ([11]; first compound 0.05 µM): 0.611
relative viability ([11]; first compound 0.1581 µM): 0.682
relative viability ([11]; first compound 0.5 µM): 0.665
relative viability ([12]; first compound 0.005 µM): 0.358
relative viability ([12]; first compound 0.01581 µM): 0.606
relative viability ([12]; first compound 0.05 µM): 0.404
relative viability ([12]; first compound 0.1581 µM): 0.36
relative viability ([12]; first compound 0.5 µM): 0.313
relative viability ([13]; first compound 0.005 µM): 0.367
relative viability ([13]; first compound 0.01581 µM): 0.461
relative viability ([13]; first compound 0.1581 µM): 0.371
relative viability ([13]; first compound 0.5 µM): 0.341
relative viability ([14]; first compound 0.005 µM): 0.35
relative viability ([14]; first compound 0.01581 µM): 0.385
relative viability ([14]; first compound 0.1581 µM): 0.276
relative viability ([14]; first compound 0.5 µM): 0.418
relative viability ([15]; first compound 0.005 µM): 0.602
relative viability ([15]; first compound 0.01581 µM): 0.627
relative viability ([15]; first compound 0.05 µM): 0.486
relative viability ([15]; first compound 0.1581 µM): 0.599
relative viability ([15]; first compound 0.5 µM): 0.624
relative viability ([16]; first compound 0.005 µM): 0.413
relative viability ([16]; first compound 0.01581 µM): 0.44
relative viability ([16]; first compound 0.05 µM): 0.376
relative viability ([16]; first compound 0.1581 µM): 0.4
relative viability ([16]; first compound 0.5 µM): 0.303
relative viability ([17]; first compound 0.005 µM): 0.805
relative viability ([17]; first compound 0.01581 µM): 0.923
relative viability ([17]; first compound 0.05 µM): 0.776
relative viability ([17]; first compound 0.1581 µM): 0.848
relative viability ([17]; first compound 0.5 µM): 0.954
relative viability ([18]; first compound 0.005 µM): 0.576
relative viability ([18]; first compound 0.01581 µM): 0.758
relative viability ([18]; first compound 0.05 µM): 0.571
relative viability ([18]; first compound 0.1581 µM): 0.507
relative viability ([18]; first compound 0.5 µM): 0.616
relative viability ([19]; first compound 0.005 µM): 0.253
relative viability ([19]; first compound 0.01581 µM): 0.298
relative viability ([19]; first compound 0.05 µM): 0.262
relative viability ([19]; first compound 0.1581 µM): 0.257
relative viability ([19]; first compound 0.5 µM): 0.258
relative viability ([20]; first compound 0.005 µM): 0.611
relative viability ([20]; first compound 0.01581 µM): 0.598
relative viability ([20]; first compound 0.05 µM): 0.57
relative viability ([20]; first compound 0.1581 µM): 0.541
relative viability ([20]; first compound 0.5 µM): 0.616
relative viability ([21]; first compound 0.005 µM): 0.466
relative viability ([21]; first compound 0.01581 µM): 0.48
relative viability ([21]; first compound 0.05 µM): 0.516
relative viability ([21]; first compound 0.1581 µM): 0.453
relative viability ([21]; first compound 0.5 µM): 0.41
relative viability ([22]; first compound 0.005 µM): 0.41
relative viability ([22]; first compound 0.01581 µM): 0.353
relative viability ([22]; first compound 0.05 µM): 0.428
relative viability ([22]; first compound 0.1581 µM): 0.381
relative viability ([22]; first compound 0.5 µM): 0.437
relative viability ([23]; first compound 0.005 µM): 0.437
relative viability ([23]; first compound 0.01581 µM): 0.503
relative viability ([23]; first compound 0.05 µM): 0.358
relative viability ([23]; first compound 0.1581 µM): 0.414
relative viability ([23]; first compound 0.5 µM): 0.406
